One experiment deals with T1, rat brain MAO-A (Rattus norvegicus, UniProt P21396).
T1 construct: from tissue; host or cells: rat brain homogenate, 4500 g pellet
T1 sequence (P21396 1-526): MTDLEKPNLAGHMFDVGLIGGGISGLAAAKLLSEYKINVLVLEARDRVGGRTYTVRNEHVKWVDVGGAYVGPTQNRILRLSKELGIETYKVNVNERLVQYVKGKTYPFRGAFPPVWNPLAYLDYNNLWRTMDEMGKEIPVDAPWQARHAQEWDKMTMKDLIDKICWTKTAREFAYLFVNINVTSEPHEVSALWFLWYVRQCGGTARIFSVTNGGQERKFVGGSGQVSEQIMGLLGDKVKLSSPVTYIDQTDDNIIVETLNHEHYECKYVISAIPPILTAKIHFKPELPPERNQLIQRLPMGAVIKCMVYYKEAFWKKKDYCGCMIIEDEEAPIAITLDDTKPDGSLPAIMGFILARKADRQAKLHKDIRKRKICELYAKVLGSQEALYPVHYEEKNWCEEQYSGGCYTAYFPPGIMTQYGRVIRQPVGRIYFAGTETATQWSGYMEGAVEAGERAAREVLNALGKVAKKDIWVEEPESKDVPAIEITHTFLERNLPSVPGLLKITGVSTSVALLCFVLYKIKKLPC
The experiment in a line: In vitro inhibition of rat brain MAO-A. In kind it is biochemical. The settings on record: read-out: inhibition of MAO-A. Here is the method: (§1) Rats were decapitated and the brains were quickly taken into a weighted ice-cold sucrose buffer (0.32 M), and their weights were determined. All subsequent procedures were performed at 0-4° C. The brains were homogenized in 0.25 M sucrose (one part tissue to 20 parts sucrose) in a Teflon glass homogenizer followed by the addition of sucrose buffer to a final concentration of 10% homogenate. The homogenates were centrifuged at 600 g for 15 min. The supernatant fraction was taken out and centrifuged at 4500 g for 30 min, the pellet was diluted in 0.32 M sucrose buffer and kept frozen for later assaying of MAO. Protein concentration was determined with Bradford reagent at 595 nm, using bovine serum albumin as a standard.
(§2) The test compound was added to a suitable dilution of the enzyme preparation (70 μg protein for MAO-B and 150 μg MAO-A assay) in 0.05 M phosphate buffer (pH 7.4). The mixture was incubated together with […], a specific inhibitor of MAO-B (for determination of MAO-A) or […] clorgylin, a specific inhibitor of MAO-A (for determination of MAO-B). Incubation was carried for 1 h at 37° C. before addition of ^14C-5-hydroxytryptamine binoxalate ([…]) for determination of MAO-A, or ^14C-phenylethylamine 100 µM for determination of MAO-B, and incubation continued for 30 min or 20 min, respectively. The reaction was stopped with 2 M ice-cold citric acid, and the metabolites were extracted and determined by liquid-scintillation counting in cpm units.
(§3) MAO-A and MAO-B activities were determined in rat brain homogenate in vitro following incubation with varying concentrations of the test compounds.
In another experiment, the in vitro inhibitory activity of HLA20, M32, VK-28, M30, M31, and propargylamine (P) was tested against rat brain MAO-A. The test compounds were added to buffer containing 10^−7M deprenyl and were incubated with the tissue homogenate for 60 min at 37° C. before addition of ^14C-5-hydroxytryptamine. MAO-A activity in presence of the test compound was expressed as a percentage of that in control samples.

A further experiment addresses T2, rat brain MAO-B (Rattus norvegicus, UniProt P19643).
T2 construct: from tissue; host or cells: rat brain homogenate, 4500 g pellet
T2 sequence (P19643 1-520): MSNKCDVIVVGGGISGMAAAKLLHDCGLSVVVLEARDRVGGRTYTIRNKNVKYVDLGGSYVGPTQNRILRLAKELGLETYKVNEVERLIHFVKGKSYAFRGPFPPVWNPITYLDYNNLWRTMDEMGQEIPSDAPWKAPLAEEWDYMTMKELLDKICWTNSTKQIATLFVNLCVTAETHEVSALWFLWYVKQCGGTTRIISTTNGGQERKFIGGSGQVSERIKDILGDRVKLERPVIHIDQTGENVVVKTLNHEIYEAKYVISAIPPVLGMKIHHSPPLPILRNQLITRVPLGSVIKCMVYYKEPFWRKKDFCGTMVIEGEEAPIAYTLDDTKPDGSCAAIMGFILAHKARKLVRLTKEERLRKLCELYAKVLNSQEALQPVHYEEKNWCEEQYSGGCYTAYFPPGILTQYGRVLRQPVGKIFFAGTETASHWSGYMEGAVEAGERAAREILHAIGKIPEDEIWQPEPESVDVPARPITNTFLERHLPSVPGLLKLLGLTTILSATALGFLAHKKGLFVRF
The experiment in a line: In vitro inhibition of rat brain MAO-B. It counts as biochemical. The settings on record: read-out: inhibition of MAO-B. Here is the method: as §1, §2, §3
MAO-B activity in presence of the test compound was expressed as a percentage of that in control samples.

The nature of experiment [1]: Iron chelation in solution: fluorescence dequenching of iron-quenched calcein. The settings on record: Fe-CAL in HBS pH 7.4, room temperature, 1 h incubation, read-out: half maximal dequenching level. Here is the method:
Iron binding was determined by the chelator capacity for restoring the fluorescence of iron-quenched calcein (CAL), a dynamic fluorescent metallosensor. The iron-scavenging properties of the chelators were assessed in solution, by mixing iron salts with free CAL.
Iron precomplexed calcein (Fe-CAL) solutions of 1 μm (in Hepes 20 mM buffered saline, pH 7.4=HBS) were incubated in the presence of the indicated concentrations of different chelators at room temperature and the fluorescence intensity (475 nm->520 nm) followed with time in a Tecan fluorescence plate reader, using 96-well culture plates (Nunc) at 100 μl final volume. The time-dependent complexation of iron from Fe-CAL by the chelators was followed by fluorescence dequenching. The fluorescence intensity attained after 1 h incubation is shown as a function of the chelator concentration.
The corresponding half maximal dequenching level for the corresponding chelator was (in μM) (rank order from the fastest acting to the slowest): […]

In experiment [2] the test system is human erythroleukemia K562 cells. The experiment in a line: Iron permeation of the chelators into calcein-loaded K562 cells. In kind it is cell-based. The settings on record: 5 μM chelator, 37° C. Here is the method:
The iron-scavenging properties of the chelators were assessed in human erythroleukemia K562 cells, by loading with the permeant CAL-AM probe, in situ formation of free CAL, and binding of cytosolic labile iron. Calcein-AM readily passes through the cell membrane of viable cells because of the enhanced hydrophobicity as compared to Calcein. When Calcein-AM permeates into the cytoplasm, it is hydrolyzed by esterases in cells to the parent Calcein, a pH-independent, cytosolic fluorescent marker, which remains inside of the cell. The time-dependent recovery of fluorescence in the presence of a given chelator provided a continuous measure for the capacity of the chelator to access the iron/CAL-containing compartment.
Calcein uptake and intracellular fluorescence were determined as follows: K562 erythroleukemia cells were preloaded with calcein (CAL) by incubation with […] of the fluorescent probe CAL-AM for 5 min at 37° C., washed and incubated in HBS medium containing anti-CAL antibodies in order to quench traces of extracellular-associated fluorescence. The suspensions were placed in 96-well plates (100 μl final volume) and analyzed as described above while maintaining the system at 37° C. At the indicated time, the indicated chelator was added so as to reach a final 5 μM concentration.
The values of half maximal time (sec) and fraction of fluorescence recovery were: […]

For two compounds, inhibition, EC50 and half maximal time results are on record in patent US8058442B2 (Technion Research and Development Foundation Ltd., priority 2002, dated 2011).

SMILES strings stand for the structures. Where two headings read alike, the source gives them in different places.

The inhibition is the share of the control response that was lost under treatment. As for `OCCN1CCN(Cc2ccc(O)c3ncccc23)CC1` [VK-28, 5-[4-(2-hydroxyethyl)piperazin-1-ylmethyl]-8-hydroxyquinoline, reference compound], the figures for the inhibition at 100 µM on rat brain MAO-A (100 μM) and on rat brain MAO-B (100 μM) were 15.1% and 13.3%, respectively. Also, the EC50 in experiment [1] (FIG. 1B) is 5.2 µM; in experiment [1] (FIG. 1C), 3.2 µM. Also, the figures for the half maximal time in experiment [2] (FIG. 2B) and in experiment [2] (FIG. 2C) were 1250 s and 1500 s, respectively.

On to `C#CCN1CCN(Cc2ccc(O)c3ncccc23)CC1` [HLA20, 5-(4-propargylpiperazin-1-ylmethyl)-8-hydroxyquinoline], for which the inhibition at 100 µM amounted to 26.1% on rat brain MAO-A and 42% at rat brain MAO-B. For the same compound, the EC50 in experiment [1] (FIG. 1A) was 3.5 µM; in experiment [1] (FIG. 1B) it was 5.4 µM. The values for the half maximal time in experiment [2] (FIG. 2A) and in experiment [2] (FIG. 2B) were 175 s and 390 s, respectively.
